This passage reports TGI results from PubChem BioAssay (NCI).

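Test compounds were applied to cells in 96-well plates for 48 hours at 5 doses. TGI: concentration producing complete growth inhibition.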

Common to all, as to assay: NCI tumour cell line growth inhibition, 48 h
Assay [1] concerns HCT-15 colon.
In assay [2] the test system is UO-31 renal.
Assay [3] concerns NCI-H522 lung.
Assay [4] has as its system PC-3 prostate.
Assay [5] concerns SNB-19 CNS.
In assay [6] the test system is DU-145 prostate.
Assay [7] concerns KM12 colon.
Assay [8] deals with EKVX NSCLC.
Assay [9] has as its system SF-539 CNS.
Assay [10] relates to SF-268 CNS.
Assay [11] relates to OVCAR-5 ovarian.

Turning to `C=C(CC)C[C@@H]1C[C@]2(C(=O)OC)c3[nH]c4ccccc4c3CCN2C1=O`, the TGI in assay [1] was 34.5 µM; in assay [2], 38.6 µM; in assay [3], 36.7 µM; in assay [4] it was 42.8 µM; in assay [5], > 100 µM; in [6], > 100 µM. Also, the TGI in [7] turned out to be 58.9 µM; in [8] it was 85.5 µM; in [9] it was 30.9 µM; in assay [10], 51.9 µM; in [11] it was 56 µM.

For the compound `CC(=O)C1C(=O)C(=O)N(c2ccc(Br)cc2)C1=O` (stereo not drawn), the TGI in assay [1], in assay [2], in assay [3], in assay [4], in assay [5] and in assay [6] was > 100 µM in each case. The TGI in assay [7], in [8], in assay [9], in [10] and in assay [11] was > 100 µM each time.

`CC1=C(C(=O)NC(C)(C)C)CC(C(=O)NC(C)(C)C)C(C)N1` (stereo not drawn): the TGI in assay [1], in assay [2], in [3], in assay [4], in [5] and in assay [6] was > 100 µM each time. Also, the TGI in assay [7], in [8], in [9], in assay [10] and in [11] was > 100 µM each time.
